The values that follow come from US10961202B2, “Bis-benzimidazole compounds and methods of using the same” (THE SCRIPPS RESEARCH INSTITUTE, priority 2017, dated 2021).

The test system of the experiment is r(CUG)12-MBNL1 complex. The experiment is described as follows: Inhibition of the r(CUG)12-MBNL1 complex measured by TR-FRET. The format is biochemical. The note with it: Table M; 80 nM RNA, 60 nM MBNL1-His6. (Time-resolved FRET reads energy transfer from a long-lived donor to a nearby acceptor.)

`CC(=O)NCCN(C)CCNC(=O)c1ccc(-c2ccc3[nH]c(-c4ccc(OCCCN(C)C)cc4)nc3c2)cc1` [Compound 396]: the half-inhibitory concentration (IC50) (in general, the concentration at which inhibition is half-maximal) was greater than 200 µM.
For `CN(C)CCNC(=O)c1ccc(-c2nc3cc(-c4ccc5[nH]c(-c6ccc(C(=O)NCCOCCOCCOCCOCCN=[N+]=[N-])cc6)nc5c4)ccc3[nH]2)cc1` [Compound 397], the midpoint of inhibition, the IC50, lay at 12.2 µM.
In turn, `CN(C)CCNC(=O)c1ccc(-c2nc3cc(-c4ccc5[nH]c(-c6ccc(C(=O)NCCOCCOCCN=[N+]=[N-])cc6)nc5c4)ccc3[nH]2)cc1` [Compound 398] registered a concentration for half-maximal inhibition (IC50) of 14.7 µM.
For `CN(C)CCNC(=O)c1ccc(-c2nc3cc(-c4ccc5[nH]c(-c6ccc(C(=O)NCCCN=[N+]=[N-])cc6)nc5c4)ccc3[nH]2)cc1` [Compound 399] the value was 9.6 µM; for `CN(C)CCCOc1ccc(-c2nc3cc(-c4ccc5[nH]c(-c6ccc(C(=O)NCCCN=[N+]=[N-])cc6)nc5c4)ccc3[nH]2)cc1` [Compound 400], 14.8 µM; for `C[C@@H](NC(=O)CNCCCn1cc(CCCCN(C)CCNC(=O)CCCOc2ccc3[nH]c(-c4ccc(-c5nc6cc(OCCCN(C)C)ccc6[nH]5)cc4)nc3c2)nn1)C(=O)N[C@H](C)C(=O)N[C@H](C)C(=O)N[C@H](C)C(=O)N(CCCn1cc(CCCCN(C)CCNC(=O)CCCOc2ccc3[nH]c(-c4ccc(-c5nc6cc(OCCCN(C)C)ccc6[nH]5)cc4)nc3c2)nn1)CC(N)=O` [Compound 407], 110 µM.
For `CN(C)CCNC(=O)c1ccc(-c2nc3cc(-c4ccc5[nH]c(-c6ccc(C(=O)N(C)CCCN(C)C(=O)c7ccc(-c8nc9cc(-c%10ccc%11[nH]c(-c%12ccc(C(=O)NCCN(C)C)cc%12)nc%11c%10)ccc9[nH]8)cc7)cc6)nc5c4)ccc3[nH]2)cc1` [Compound 409] the value was 50.6 µM; for `CN(C)CCNC(=O)c1ccc(-c2nc3cc(-c4ccc5[nH]c(-c6ccc(C(=O)NC7CCCCC7NC(=O)c7ccc(-c8nc9cc(-c%10ccc%11[nH]c(-c%12ccc(C(=O)NCCN(C)C)cc%12)nc%11c%10)ccc9[nH]8)cc7)cc6)nc5c4)ccc3[nH]2)cc1` (stereo not drawn) [Compound 410], 34.4 µM; for `CC(CNC(=O)c1ccc(-c2nc3cc(-c4ccc5[nH]c(-c6ccc(C(=O)NCCN(C)C)cc6)nc5c4)ccc3[nH]2)cc1)NC(=O)c1ccc(-c2nc3cc(-c4ccc5[nH]c(-c6ccc(C(=O)NCCN(C)C)cc6)nc5c4)ccc3[nH]2)cc1` (stereo not drawn) [Compound 411], 1.91 µM.
For `CN(C)CCNC(=O)c1ccc(-c2nc3cc(-c4ccc5[nH]c(-c6ccc(C(=O)NCCNC(=O)c7ccc(-c8nc9cc(-c%10ccc%11[nH]c(-c%12ccc(C(=O)NCCN(C)C)cc%12)nc%11c%10)ccc9[nH]8)cc7)cc6)nc5c4)ccc3[nH]2)cc1` [Compound 412] the value was 3.28 µM; for `CN(C)CCNC(=O)c1ccc(-c2nc3cc(-c4ccc5[nH]c(-c6ccc(C(=O)NCCCNC(=O)c7ccc(-c8nc9cc(-c%10ccc%11[nH]c(-c%12ccc(C(=O)NCCN(C)C)cc%12)nc%11c%10)ccc9[nH]8)cc7)cc6)nc5c4)ccc3[nH]2)cc1` [Compound 413], 3.34 µM.
In turn, `CN(C)CCNC(=O)c1ccc(-c2nc3cc(-c4ccc5[nH]c(-c6ccc(C(=O)NCCCCCNC(=O)c7ccc(-c8nc9cc(-c%10ccc%11[nH]c(-c%12ccc(C(=O)NCCN(C)C)cc%12)nc%11c%10)ccc9[nH]8)cc7)cc6)nc5c4)ccc3[nH]2)cc1` [Compound 414] showed a concentration for half-maximal inhibition (IC50) of 8.16 µM.
As for `C[C@@H](C(=O)N(C)[C@@H](C)C(=O)N(C)[C@@H](C)C(=O)N(CCCCN(C)C(=O)c1ccc(-c2nc3cc(-c4ccc5[nH]c(-c6ccc(C(=O)NCCN(C)C)cc6)nc5c4)ccc3[nH]2)cc1)CC(N)=O)N(C)C(=O)c1ccc(-c2nc3cc(-c4ccc5[nH]c(-c6ccc(C(=O)NCCN(C)C)cc6)nc5c4)ccc3[nH]2)cc1` [Compound 415], the figure is 5.15 µM; as for `C[C@@H](C(=O)N(C)[C@@H](C)C(=O)N(C)[C@@H](C)C(=O)N(C)[C@@H](C)C(=O)N(CCCCN(C)C(=O)c1ccc(-c2nc3cc(-c4ccc5[nH]c(-c6ccc(C(=O)NCCN(C)C)cc6)nc5c4)ccc3[nH]2)cc1)CC(N)=O)N(C)C(=O)c1ccc(-c2nc3cc(-c4ccc5[nH]c(-c6ccc(C(=O)NCCN(C)C)cc6)nc5c4)ccc3[nH]2)cc1` [Compound 416], 39 µM.
As to `C[C@@H](C(=O)N(C)[C@@H](C)C(=O)N(C)[C@@H](C)C(=O)N(C)[C@@H](C)C(=O)N(C)[C@@H](C)C(=O)N(CCCCN(C)C(=O)c1ccc(-c2nc3cc(-c4ccc5[nH]c(-c6ccc(C(=O)NCCN(C)C)cc6)nc5c4)ccc3[nH]2)cc1)CC(N)=O)N(C)C(=O)c1ccc(-c2nc3cc(-c4ccc5[nH]c(-c6ccc(C(=O)NCCN(C)C)cc6)nc5c4)ccc3[nH]2)cc1` [Compound 417], the half-inhibitory concentration (IC50) was 9.24 µM.
In turn, `CC(=O)N(CCCCN(C)C(=O)c1ccc(-c2nc3cc(-c4ccc5[nH]c(-c6ccc(C(=O)NCCN(C)C)cc6)nc5c4)ccc3[nH]2)cc1)CC(=O)N(C)[C@@H](C)C(=O)N(C)[C@@H](C)C(=O)N(C)[C@@H](C)C(=O)N(CCCCN(C)C(=O)c1ccc(-c2nc3cc(-c4ccc5[nH]c(-c6ccc(C(=O)NCCN(C)C)cc6)nc5c4)ccc3[nH]2)cc1)CC(N)=O` [Compound 418] yielded an IC50 of 5.32 µM.
The molecule `CN(C)CCNC(=O)c1ccc(-c2nc3cc(-c4ccc5[nH]c(-c6ccc(C(=O)NCCCCCCNC(=O)c7ccc(-c8nc9cc(-c%10ccc%11[nH]c(-c%12ccc(C(=O)NCCN(C)C)cc%12)nc%11c%10)ccc9[nH]8)cc7)cc6)nc5c4)ccc3[nH]2)cc1` [Compound 419] returned a concentration for half-maximal inhibition (IC50) of 4.85 µM.
Consider `CN(C)CCNC(=O)c1ccc(-c2nc3cc(-c4ccc5[nH]c(-c6ccc(C(=O)NCCCCNC(=O)c7ccc(-c8nc9cc(-c%10ccc%11[nH]c(-c%12ccc(C(=O)NCCN(C)C)cc%12)nc%11c%10)ccc9[nH]8)cc7)cc6)nc5c4)ccc3[nH]2)cc1` [Compound 420], for which 6.32 µM corresponded to half-maximal inhibition (IC50).
As for `CN(C)CCNC(=O)c1ccc(-c2nc3cc(-c4ccc5[nH]c(-c6ccc(C(=O)NCCCCCCCNC(=O)c7ccc(-c8nc9cc(-c%10ccc%11[nH]c(-c%12ccc(C(=O)NCCN(C)C)cc%12)nc%11c%10)ccc9[nH]8)cc7)cc6)nc5c4)ccc3[nH]2)cc1` [Compound 421], the figure is 14.8 µM; as for `CN(C)CCNC(=O)c1ccc(-c2nc3cc(-c4ccc5[nH]c(-c6ccc(C(=O)NCCCCCCCCNC(=O)c7ccc(-c8nc9cc(-c%10ccc%11[nH]c(-c%12ccc(C(=O)NCCN(C)C)cc%12)nc%11c%10)ccc9[nH]8)cc7)cc6)nc5c4)ccc3[nH]2)cc1` [Compound 422], 5.65 µM.
For `CN(C)CCNC(=O)c1ccc(-c2nc3cc(-c4ccc5[nH]c(-c6ccc(C(=O)NCCCCCCCCCNC(=O)c7ccc(-c8nc9cc(-c%10ccc%11[nH]c(-c%12ccc(C(=O)NCCN(C)C)cc%12)nc%11c%10)ccc9[nH]8)cc7)cc6)nc5c4)ccc3[nH]2)cc1` [Compound 423], the IC50 was 5.31 µM.
The molecule `CN(C)CCNC(=O)c1ccc(-c2nc3cc(-c4ccc5[nH]c(-c6ccc(C(=O)NCCCCCCCCCCNC(=O)c7ccc(-c8nc9cc(-c%10ccc%11[nH]c(-c%12ccc(C(=O)NCCN(C)C)cc%12)nc%11c%10)ccc9[nH]8)cc7)cc6)nc5c4)ccc3[nH]2)cc1` [Compound 424] displayed a half-inhibitory concentration (IC50) of 5.82 µM.
For `CN(C)CCNC(=O)c1ccc(-c2nc3ccc(-c4ccc5nc(-c6ccc(C(=O)NCC(C)(C)CNC(=O)c7ccc(-c8nc9ccc(-c%10ccc%11nc(-c%12ccc(C(=O)NCCN(C)C)cc%12)[nH]c%11c%10)cc9[nH]8)cc7)cc6)[nH]c5c4)cc3[nH]2)cc1` [Compound 425] the value was 9.83 µM; for `CC(CCCNC(=O)c1ccc(-c2nc3ccc(-c4ccc5nc(-c6ccc(C(=O)NCCN(C)C)cc6)[nH]c5c4)cc3[nH]2)cc1)CNC(=O)c1ccc(-c2nc3ccc(-c4ccc5nc(-c6ccc(C(=O)NCCN(C)C)cc6)[nH]c5c4)cc3[nH]2)cc1` (stereo not drawn) [Compound 426], 7.04 µM.
For `CN(C)CCNC(=O)c1ccc(-c2nc3ccc(-c4ccc5nc(-c6ccc(C(=O)N7CCC(CCCC8CCN(C(=O)c9ccc(-c%10nc%11ccc(-c%12ccc%13nc(-c%14ccc(C(=O)NCCN(C)C)cc%14)[nH]c%13c%12)cc%11[nH]%10)cc9)CC8)CC7)cc6)[nH]c5c4)cc3[nH]2)cc1` [Compound 427] the value was 3.23 µM; for `CN(C)CCNC(=O)c1ccc(-c2nc3ccc(-c4ccc5nc(-c6ccc(C(=O)NC7CCC(CC8CCC(NC(=O)c9ccc(-c%10nc%11ccc(-c%12ccc%13nc(-c%14ccc(C(=O)NCCN(C)C)cc%14)[nH]c%13c%12)cc%11[nH]%10)cc9)CC8)CC7)cc6)[nH]c5c4)cc3[nH]2)cc1` (stereo not drawn) [Compound 428], 2.9 µM; for `CN(C)CCNC(=O)c1ccc(-c2nc3ccc(-c4ccc5nc(-c6ccc(C(=O)NCCCOCCOCCOCCCNC(=O)c7ccc(-c8nc9ccc(-c%10ccc%11nc(-c%12ccc(C(=O)NCCN(C)C)cc%12)[nH]c%11c%10)cc9[nH]8)cc7)cc6)[nH]c5c4)cc3[nH]2)cc1` [Compound 429], 9.6 µM.
As for `C[C@@H](C(=O)N(C)[C@@H](C)C(=O)N(C)[C@@H](C)C(=O)N(C)[C@@H](C)C(=O)N(CCCn1cc(COCCOCCN(C)C(=O)c2ccc(-c3nc4ccc(-c5ccc6nc(-c7ccc(C(=O)NCCN(C)C)cc7)[nH]c6c5)cc4[nH]3)cc2)nn1)CC(N)=O)N(C)C(=O)CNCCCn1cc(COCCOCCN(C)C(=O)c2ccc(-c3nc4ccc(-c5ccc6nc(-c7ccc(C(=O)NCCN(C)C)cc7)[nH]c6c5)cc4[nH]3)cc2)nn1` [Compound 430], the figure is 7.7 µM; as for `C[C@H](C(=O)N(C)[C@H](C)C(=O)N(C)[C@H](C)C(=O)N(C)[C@H](C)C(=O)N(CCCn1cc(COCCOCCOCCOCCNC(=O)c2ccc(-c3nc4ccc(-c5ccc6nc(-c7ccc(C(=O)NCCN(C)C)cc7)[nH]c6c5)cc4[nH]3)cc2)nn1)CC(N)=O)N(C)C(=O)CNCCCn1cc(COCCOCCOCCOCCNC(=O)c2ccc(-c3nc4ccc(-c5ccc6nc(-c7ccc(C(=O)NCCN(C)C)cc7)[nH]c6c5)cc4[nH]3)cc2)nn1` [Compound 431], greater than 200 µM; as for `CN(C)CCNC(=O)c1ccc(-c2nc3ccc(-c4ccc5nc(-c6ccc(C(=O)N(C)CCOCCOCc7cn(CCCNCC(=O)N8CCC[C@H]8C(=O)N8CCC[C@H]8C(=O)N8CCC[C@H]8C(=O)N8CCC[C@H]8C(=O)N(CCCn8cc(COCCOCCN(C)C(=O)c9ccc(-c%10nc%11ccc(-c%12ccc%13nc(-c%14ccc(C(=O)NCCN(C)C)cc%14)[nH]c%13c%12)cc%11[nH]%10)cc9)nn8)CC(N)=O)nn7)cc6)[nH]c5c4)cc3[nH]2)cc1` [Compound 432], 11.6 µM.
